Bridge positions count the residues as written; N and C are the ends. Square brackets hold non-standard residues; d marks the D form. Peptide text beside a SMILES is read from it. Nle = CCCC[C@H](N)C(=O)O
Assays:
[1] = tested on: rat anterior pituitary cells; assay: In vitro stimulation of ACTH and β-endorphin secretion by cultured rat pituitary cells, potency compared with oCRF (Standard) or r/hCRF; type: cell-based; details: for in vitro biopotency, comparison in words: compared with the Standard or with a named analog; for stimulation of secretion of ACTH and β-END-LI (testing by the general procedure), in words: general procedure of Example 1
Method: The cyclic CRF agonists are examined for their effects on the secretion of ACTH and β-endorphin in vitro and also in vivo. […] In vivo testing is carried out using the general procedure set forth in C. Rivier et al., Science, 218, 377 (1982).

[2] = Lowering of blood pressure on peripheral or iv administration; type: in vivo; details: peripheral administration

| SMILES | in vitro biopotency, comparison in words [1] | lowering of blood pressure when administered peripherally, in words [2] | stimulation of secretion of ACTH and β-END-LI (testing by the general procedure), in words [1] |
| --- | --- | --- | --- |
| CCCC[C@H](NC(=O)[C@H](CCC(=O)O)NC(=O)[C@H](CC(C)C)NC(=O)[C@H](CCCC)NC(=O)[C@H](CCC(=O)O)NC(=O)[C@H](CCCNC(=N)N)NC(=O)[C@H](CC(C)C)NC(=O)[C@H](CC(C)C)NC(=O)[C@H](Cc1c[nH]cn1)NC(=O)[C@@H](Cc1ccccc1)NC(=O)[C@@H](NC(=O)[C@H](CC(C)C)NC(=O)[C@H](CC(=O)O)NC(=O)[C@H](CC(C)C)NC(=O)[C@H](CO)NC(C)=O)[C@@H](C)O)C(=O)N[C@@H](C)C(=O)N[C@@H](CCCCN)C(=O)N[C@@H](C)C(=O)N[C@@H](CCC(=O)O)C(=O)N[C@@H](CCC(N)=O)C(=O)N[C@@H](CCC(=O)O)C(=O)N[C@@H](C)C(=O)N[C@@H](CCC(=O)O)C(=O)N[C@H]1CCC(=O)NCCCC[C@@H](C(=O)N[C@@H](CC(N)=O)C(=O)N[C@@H](CCCNC(=N)N)C(=O)N[C@@H](CC(C)C)C(=O)N[C@@H](CC(C)C)C(=O)N[C@@H](CC(C)C)C(=O)N[C@@H](CCC(=O)O)C(=O)N[C@@H](CCC(=O)O)C(=O)N[C@@H](C)C(N)=O)NC(=O)[C@@H](Cc2c[nH]cn2)NC(=O)[C@H](C)NC1=O [Example 16 A D-His^32 cyclic analog] (Ac-SLDLT[dF]HLLRE[Nle]LE[Nle]AKAEQEAEEA[dH]KNRLLLEEA-NH2; lactam 24-27) | biopotency greater than the Standard peptide | – | – |
| CCCC[C@H](NC(=O)[C@H](CCC(=O)O)NC(=O)[C@H](CC(C)C)NC(=O)[C@H](CCCC)NC(=O)[C@H](CCC(=O)O)NC(=O)[C@H](CCCNC(=N)N)NC(=O)[C@H](CC(C)C)NC(=O)[C@H](CC(C)C)NC(=O)[C@H](Cc1c[nH]cn1)NC(=O)[C@@H](Cc1ccccc1)NC(=O)[C@@H](NC(=O)[C@H](CC(C)C)NC(=O)[C@H](CC(=O)O)NC(=O)[C@H](CC(C)C)NC(=O)[C@H](CO)NC(C)=O)[C@@H](C)O)C(=O)N[C@@H](C)C(=O)N[C@@H](CCCCN)C(=O)N[C@@H](C)C(=O)N[C@@H](CCC(=O)O)C(=O)N[C@@H](CCC(N)=O)C(=O)N[C@@H](CCC(=O)O)C(=O)N[C@@H](C)C(=O)N[C@@H](CCC(=O)O)C(=O)N[C@H]1CCC(=O)NCCCC[C@@H](C(=O)N[C@@H](CC(N)=O)C(=O)N[C@@H](CCCNC(=N)N)C(=O)N[C@@H](CC(C)C)C(=O)N[C@@H](CC(C)C)C(=O)N[C@@H](CC(C)C)C(=O)N[C@@H](CCC(=O)O)C(=O)N[C@@H](CCC(=O)O)C(=O)N[C@@H](C)C(N)=O)NC(=O)[C@@H](C)NC(=O)[C@H](C)NC1=O [Example 16 A, (cyclo 30-33)[Ac-Ser^7, D-Phe^12, Nle^18,21, Glu^30, D-Ala^32, Lys^33]-AHC(7-41)] (Ac-SLDLT[dF]HLLRE[Nle]LE[Nle]AKAEQEAEEA[dA]KNRLLLEEA-NH2; lactam 24-27) | – | very significant lowering of blood pressure | strongly stimulates the secretion of ACTH and β-END-LI |
| CCCC[C@H](NC(=O)[C@H](CCCCN)NC(=O)[C@H](CCCNC(=N)N)NC(=O)[C@H](CC(C)C)NC(=O)[C@H](CC(C)C)NC(=O)[C@H](CCC(=O)O)NC(=O)[C@@H](CC(C)C)NC(=O)[C@H](CO)NC(=O)[C@H](CC(C)C)NC(=O)[C@H](CC(=O)O)NC(=O)[C@@H](NC(=O)[C@H](CO)NC(C)=O)[C@@H](C)CC)C(=O)N[C@H](C(=O)N[C@@H](CCC(=O)O)C(=O)N[C@H](C(=O)N[C@@H](CCC(=O)O)C(=O)N[C@@H](CCCCN)C(=O)N[C@@H](CCC(N)=O)C(=O)N[C@@H](CCC(=O)O)C(=O)N[C@@H](CCCCN)C(=O)N[C@@H](CCC(=O)O)C(=O)N[C@@H](CCCCN)C(=O)N[C@@H](CCC(N)=O)C(=O)N[C@H]1CCC(=O)NCCCC[C@@H](C(=O)N[C@@H](CC(N)=O)C(=O)N[C@@H](CCCNC(=N)N)C(=O)N[C@@H](CC(C)C)C(=O)N[C@@H](CC(C)C)C(=O)N[C@@H](CC(C)C)C(=O)N[C@@H](CC(=O)O)C(=O)N[C@H](C(=O)N[C@H](C(N)=O)[C@@H](C)CC)[C@@H](C)O)NC(=O)[C@@H](C)NC(=O)[C@H](C)NC1=O)[C@@H](C)CC)[C@@H](C)CC [Example 16 C D-Ala^31 analog] (Ac-SIDLS[dL]ELLRK[Nle]IEIEKQEKEKQEA[dA]KNRLLLDTI-NH2; lactam 24-27) | shows increased biopotency | – | – |
| CCCC[C@H](NC(=O)[C@H](CCCCN)NC(=O)[C@H](CCCNC(=N)N)NC(=O)[C@H](CC(C)C)NC(=O)[C@H](CC(C)C)NC(=O)[C@H](CCC(=O)O)NC(=O)[C@@H](CC(C)C)NC(=O)[C@H](CO)NC(=O)[C@H](CC(C)C)NC(=O)[C@H](CC(=O)O)NC(=O)[C@@H](NC(=O)[C@H](CO)NC(C)=O)[C@@H](C)CC)C(=O)N[C@H](C(=O)N[C@@H](CCC(=O)O)C(=O)N[C@H](C(=O)N[C@@H](CCC(=O)O)C(=O)N[C@@H](CCCCN)C(=O)N[C@@H](CCC(N)=O)C(=O)N[C@@H](CCC(=O)O)C(=O)N[C@@H](CCCCN)C(=O)N[C@@H](CCC(=O)O)C(=O)N[C@@H](CCCCN)C(=O)N[C@@H](CCC(N)=O)C(=O)N[C@H]1CCC(=O)NCCCC[C@@H](C(=O)N[C@@H](CC(N)=O)C(=O)N[C@@H](CCCNC(=N)N)C(=O)N[C@@H](CC(C)C)C(=O)N[C@@H](CC(C)C)C(=O)N[C@@H](CC(C)C)C(=O)N[C@@H](CC(=O)O)C(=O)N[C@H](C(=O)N[C@H](C(N)=O)[C@@H](C)CC)[C@@H](C)O)NC(=O)[C@H](C)NC(=O)[C@H](C)NC1=O)[C@@H](C)CC)[C@@H](C)CC [Example 16 C, (cyclo 29-32)[Ac-Ser^6, D-Leu^11, Nle^17, Glu^29, Lys^32]-sauvagine(6-40)] (Ac-SIDLS[dL]ELLRK[Nle]IEIEKQEKEKQEAAKNRLLLDTI-NH2; lactam 24-27) | – | very significant lowering of blood pressure | stimulates the secretion of ACTH and β-END-LI |
| CCCC[C@H](NC(=O)[C@H](CCCCN)NC(=O)[C@H](C)NC(=O)[C@H](CCCNC(=N)N)NC(=O)[C@H](Cc1c[nH]cn1)NC(=O)[C@@H](NC(=O)[C@H](CCCC)NC(=O)[C@H](CC(N)=O)NC(=O)[C@H](CCCNC(=N)N)NC(=O)[C@H](CC(C)C)NC(=O)[C@H](CCCC)NC(=O)[C@H](Cc1c[nH]cn1)NC(=O)[C@@H](Cc1ccccc1)NC(=O)[C@@H](NC(=O)[C@H](CC(C)C)NC(=O)[C@H](CC(=O)O)NC(=O)[C@@H](NC(=O)[C@H](CO)NC(C)=O)[C@@H](C)CC)[C@@H](C)O)[C@@H](C)CC)C(=O)N[C@@H](CCC(=O)O)C(=O)NCC(=O)N[C@@H](CCC(=O)O)C(=O)N[C@@H](CCCNC(=N)N)C(=O)N[C@@H](CCC(=O)O)C(=O)N[C@H]1CCC(=O)NCCCC[C@@H](C(=O)N[C@@H](CC(N)=O)C(=O)N[C@@H](CCCNC(=N)N)C(=O)N[C@@H](CC(N)=O)C(=O)N[C@@H](CC(C)C)C(=O)N[C@@H](CC(C)C)C(=O)N[C@@H](CC(=O)O)C(=O)N[C@@H](CCC(=O)O)C(=O)N[C@H](C(N)=O)C(C)C)NC(=O)[C@@H](Cc2c[nH]cn2)NC(=O)[C@H](C)NC1=O [Example 16 E D-His^32 analog] (Ac-SIDLT[dF]H[Nle]LRN[Nle]IHRAK[Nle]EGEREEA[dH]KNRNLLDEV-NH2; lactam 24-27) | increases biopotency over that of the D-Leu^32 analog | very significant lowering of blood pressure | stimulate the secretion of ACTH and β-END-LI |
